Experimental findings from PMC8402609, “Guiding the Immune Response to a Conserved Epitope in MSP2, an Intrinsically Disordered Malaria Vaccine Candidate” (Vaccines, 2021) are described below.

For one assay, the target named is 4D11 IgG. The experiment in a line: SPR competition binding assay, mAb 4D11. Set-up: species or system mouse. The conditions noted are these: read-out: Kd against 4D11 IgG. The method, then: (§1) Affinities for peptide epitopes and dimer peptides to 4D11 and 9H4 IgG were measured by surface plasmon resonance (SPR) (Biacore T200, GE Healthcare, Parramatta, Australia) using a competition assay method developed previously. First, 3D7 MSP2 was immobilised on a CM5 chip. To determine binding, eight three-fold dilutions of peptide, from 10 µM stock were added with 50 nM 4D11/9H4 IgG to compete with the immobilised antigen. A standard curve was established by flowing eight two-fold dilutions of 4D11 or 9H4 IgG from a 100 nM stock solution.
Following the MD simulations, each peptide was synthesised by standard Fmoc synthesis. Orthogonal protection of cysteines was used to ensure that the desired disulfide bond was formed, leaving a single free cysteine for conjugation to an appropriate carrier for immunisation. […] Consequently, disulfide bond formation and cyclisation coupling were performed in solution. To determine if the additions incorporated into the dimer sequence hindered binding to 4D11, SPR was used to measure their binding affinity to the mAb (Table 2). […] For immunisations, the commonly used carrier protein, keyhole limpet hemocyanin (KLH) was chosen. As conjugation to KLH required a free thiol, an additional cysteine residue was included in all of the peptides (Figure 2).

The subject of assay [1] is biotinylated 13-residue peptides (A-I) spanning the C-terminal region of MSP2. Description: Fine specificity of antisera by peptide array ELISA (peptides A-I). The conditions noted are these: individual sera of mice immunised with peptide-KLH conjugate or MSP2 mix, diluted 1:1000; indirect ELISA; peptides C-D span 9H4 epitope, E-G span 4D11 epitope. It counts as in vivo, mouse. As for the experimental part: Peptide was conjugated to maleimide-activated KLH (Sigma-Aldrich) following the manufacturer’s protocol. Briefly, 1 mg of each peptide was mixed with 1 mg KLH in the provided buffer for a 200-fold molar excess of peptide to carrier protein. The reaction mixture was degassed under nitrogen and mixed at room temperature (RT) for 2 h. Any unreacted peptide was removed by dialysis against PBS using a 10 kDa cut-off membrane. The extent of conjugation was determined using Ellman’s reagent. Peptide-KLH conjugate stock solution was stored at 4 °C until further use. Prior to immunisation, peptide-KLH conjugates were diluted to 1 mg/mL in PBS and formulated with Montanide ISA720 at an antigen:adjuvant ratio of 3:7 and a final concentration of 0.3 mg/mL. The 3D7 + FC27 MSP2 mix was formulated using 0.15 mg/mL of each allelic form. Female C57BL/6 mice (n = 6 per group) were inoculated subcutaneously with 100 µL containing 30 µg of antigen at weeks 0, 4 and 8, then euthanised at week 10. Sera were collected and stored at −80 °C.
To determine peptide-KLH binding to 4D11 and 9H4, Maxisorp 96-well microtitre plates (Nunc, Rochester, NY, USA) were coated overnight at 4 °C with 2 µg/mL peptide-KLH in PBS. The plates were blocked with 1% BSA in PBS for 1 h before adding 100 µL of 4D11 and 9H4 IgG in eleven half log10 serial dilutions starting from stock at 1 µg/mL. After 1 h incubation at 4 °C and washing, antigen-bound antibodies were detected with goat anti-mouse IgG (1:2000 dilution) and freshly prepared 2,2-azinobis(3-ethylbenzthiazolinesulfonic acid (ABTS) substrate (1 mm) in citric acid buffer, pH 4.2, containing […]. The absorbance was read at 405 nm using a microplate reader. For determination of peptide-specific antibody titres, peptide-BSA conjugate was coated on the plate at 2 µg/mL. Individual mouse sera were added at a starting dilution of 1000-fold with six half log10 serial dilutions. Endpoint titres were taken as the x-axis intercept of the dilution curve at an absorbance value of three standard deviations (s.d.) greater than OD405 for naïve mouse serum. The fine specificities of the antisera were determined by ELISA using an array of nine biotinylated 13-residue peptides (A-I), which overlap by 2 or 3 residues and spanned the C-terminal region of MSP2 [11, 13]. Maxisorp 96-well microtitre plates (Nunc) were coated overnight at 4 °C with 1 µg/mL streptavidin in PBS. The plates were blocked with 1% BSA in PBS for 2 h before adding 1:500 biotinylated peptides. Individual sera samples were diluted 1:1000 in blocking solution before addition to the peptide array. Antibody was detected with the same protocol as mentioned above.
To characterise the response against these dimeric peptides further, the specificity of the induced antibodies was determined by indirect ELISA using an array of nine biotinylated peptides that spanned the epitopes recognised by the 4D11 and 9H4 mAbs (peptides A-I) (Table 3). Peptides C and D spanned the 9H4 epitope, whilst peptides E to G spanned the 4D11 epitope. […] However, the response against MSP2 was largely dominated by a single mouse in the group.
(In general: In an ELISA, binding on a coated surface is turned into a signal by an enzyme label.)

Another assay relates to 3D7 merozoites. Description: Merozoite ELISA with pooled mouse sera, 3D7 merozoites. It counts as in vivo, P. falciparum. The following applies: pooled sera of immunised mice, two-fold dilutions from 1:500; merozoites 1 × 10^7/well; OD 450 nm; rank order in words. As for the experimental part: The reactivity of mouse polyclonal antibodies with merozoites was determined by ELISA using merozoites from both the 3D7 and FC27 (D10 clone) strains of P. falciparum. The parasites were cultured in human erythrocytes at a haematocrit of 3% in RPMI media supplemented with […]. Viable merozoites were isolated as described previously. Highly synchronised late-stage schizonts were magnet-purified via a MACS magnet separation column (Miltenyi Biotec, Macquarie Park, Australia) and treated with E64 protease inhibitor (ThermoFisher Scientific, Scoresby, Australia) until mature merozoites were formed. Merozoites were released forcing them through a 1.2 µm filter.
Purified whole merozoites were resuspended in PBS supplemented with a cocktail of protease inhibitors (Roche, Castle Hill, Australia). Isolated merozoites were used to coat Nunc Maxisorp™ plates at 1 × 10^7/well and incubated overnight at 4 °C. The plates were then blocked with 1% casein in PBS at 37 °C for 2 h (or overnight at 4 °C). Pooled sera samples were added to wells at two-fold serial dilution in duplicate with a starting dilution of 1:500 and incubated at RT for 1 h. The plates were further incubated with HRP-conjugated goat anti-mouse IgG antibody diluted at 1:1000 in 0.1% casein in PBS at RT for 1 h. The plates were washed six times with PBS between each incubation step. Finally, 3,3′,5,5′-tetramethylbenzidine (TMB) substrate (Thermo Fisher Scientific, Scoresby, Australia) was added to the wells for the development of colour for 15 min and the reaction was stopped with 1 M sulfuric acid. The OD was measured at 450 nm.
The ability to induce an immune response that can recognise parasite MSP2 is essential in the design of an MSP2-based peptide vaccine. We isolated merozoites from both 3D7 and FC27 (D10 clone) strains of P. falciparum, coated them on ELISA plates and probed them with sera from the immunised mice (Figure 6). mAb 4D11 and the MSP2 mix pre-bleed were also included as positive and negative controls, respectively.

Another assay concerns the target 9H4 IgG. The experiment in a line: SPR competition binding assay, mAb 9H4. Set-up: species or system mouse. The conditions noted are these: SPR competition assay (Biacore T200); 3D7 MSP2 immobilised on CM5 chip; eight three-fold dilutions of peptide from 10 µM with 50 nM 9H4 IgG; alanine scan of 16-residue MSP2_207–222; read-out: Kd against 9H4 IgG. The method, then: as §1
In our previous work, the minimal epitope and key residues involved in 4D11 binding were defined as the 8-residue peptide 3D7-MSP2_215–222, with Lys216, Glu217 and Asn218 crucial for binding. To characterise the epitope of 9H4 and compare it with that of 4D11, the same alanine-scan peptides were used to probe 9H4 binding (Figure 1A,B). Affinities for 9H4 binding were measured by SPR, using a competition binding assay described previously.
(Surface plasmon resonance follows binding to a sensor surface in real time, without labels.)

Where [2] appears, read: SPR competition binding assay, peptides for KLH conjugation (Table 2), 3D7 MSP2 on CM5 chip, 50 nM 4D11 IgG.
Setting [3] is: SPR competition assay (Biacore T200), 3D7 MSP2 immobilised on CM5 chip, eight three-fold dilutions of peptide from 10 µM with 50 nM 4D11 IgG, alanine scan of 16-residue MSP2_207–222.

Each structure is given as a SMILES string. pKd: −log10 of the molar value. Like-named read-outs stand apart in the source and are kept apart here. Where a SMILES comes first, the peptide text is derived from it. Bridges are numbered along the chain shown (N, C = ends).

One may read the pKd as −log10 of the Kd, conventionally taken in molar units. As for `CC(=O)N[C@@H](CO)C(=O)N[C@@H](CCC(N)=O)C(=O)N[C@@H](CCCCN)C(=O)N[C@@H](CCC(=O)O)C(=O)N[C@H]1CSSC[C@@H](C(=O)NCC(=O)N[C@@H](C)C(=O)N[C@@H](C)C(=O)N[C@@H](CS)C(N)=O)NC(=O)[C@H](CC(N)=O)NC(=O)[C@H](CCC(=O)O)NC(=O)[C@H](CCCCN)NC(=O)[C@H](CC(N)=O)NC(=O)CNC(=O)[C@H](CC(=O)O)NC(=O)[C@H]([C@@H](C)O)NC1=O` [Peptide A1] (Ac-SQKECTDGNKENCGAAC-NH2; disulfide 5-13), the pKd on 4D11 IgG (setting [2]) was 6.70. Further, the “specificity of the induced antibodies (peptide array A-I)” value (“specificity of the induced antibodies” for short) in assay [1] was “primarily against peptides C and D”. In addition, in the assay with 3D7 merozoites, the “reactivity of pooled sera with 3D7 merozoites” value (from here on “reactivity of pooled sera”) is “followed by K209A, A1, C1 and L1”.
Regarding `C[C@@H]1NC(=O)CNC(=O)[C@@H]2CSSC[C@H](NC(=O)[C@H](CC(N)=O)NC(=O)[C@H](CCC(=O)O)NC(=O)[C@H](CCCCN)NC(=O)[C@H](CC(N)=O)NC(=O)CNC(=O)[C@H](C)NC1=O)C(=O)NCC(=O)N[C@@H](C)C(=O)N[C@@H](C)C(=O)N[C@@H](CS)C(=O)N[C@@H](CC(N)=O)C(=O)N[C@@H](CCCCN)C(=O)N[C@@H](CCC(=O)O)C(=O)N[C@@H](CC(N)=O)C(=O)N2` [Peptide C1] (cyclo(NKENCGAAGNKENCGAAC); disulfide 5-14), on 4D11 IgG (setting [2]), the pKd is 6.36. In addition, in assay [1], the “specificity of the induced antibodies” value is “almost exclusively directed to the 4D11 epitope”. The “reactivity of pooled sera” value with 3D7 merozoites is “followed by K209A, A1, C1 and L1”.
`CC(=O)N[C@@H](CC(N)=O)C(=O)N[C@@H](CCCCN)C(=O)N[C@@H](CCC(=O)O)C(=O)N[C@@H](CC(N)=O)C(=O)N[C@H]1CSSC[C@@H](C(=O)NCC(=O)N[C@@H](C)C(=O)N[C@@H](C)C(=O)N[C@@H](CS)C(N)=O)NC(=O)[C@H](CC(N)=O)NC(=O)[C@H](CCC(=O)O)NC(=O)[C@H](CCCCN)NC(=O)[C@H](CC(N)=O)NC(=O)CNC(=O)[C@H](C)NC(=O)[C@H](C)NC(=O)CNC1=O` [Peptide L1] (Ac-NKENCGAAGNKENCGAAC-NH2; disulfide 5-14): the pKd on 4D11 IgG (setting [2]) is 6.33. Besides, in assay [1], the “specificity of the induced antibodies” value is on record as “almost exclusively directed to the 4D11 epitope”. For the same compound, the “reactivity of pooled sera” value in the assay with 3D7 merozoites was “followed by K209A, A1, C1 and L1”.
`CC(=O)N[C@@H](CO)C(=O)N[C@@H](CCC(N)=O)C(=O)N[C@@H](CCCCN)C(=O)N[C@@H](CCC(=O)O)C(=O)N[C@H]1CSSC[C@@H](C(=O)NCC(=O)N[C@@H](C)C(=O)N[C@@H](C)C(N)=O)NC(=O)[C@H](C)NC(=O)[C@H](CCC(=O)O)NC(=O)[C@H](CCCCN)NC(=O)[C@H](CC(N)=O)NC(=O)CNC(=O)[C@H](CC(=O)O)NC(=O)[C@H]([C@@H](C)O)NC1=O` [Peptide N218A] (Ac-SQKECTDGNKEACGAA-NH2; disulfide 5-13): the results for the pKd at 9H4 IgG and at 4D11 IgG (setting [3]) were 5.57 and 5.22, respectively.
Turning to `CC(=O)N[C@@H](CO)C(=O)N[C@@H](C)C(=O)N[C@@H](CCCCN)C(=O)N[C@@H](CCC(=O)O)C(=O)N[C@H]1CSSC[C@@H](C(=O)NCC(=O)N[C@@H](C)C(=O)N[C@@H](C)C(N)=O)NC(=O)[C@H](CC(N)=O)NC(=O)[C@H](CCC(=O)O)NC(=O)[C@H](CCCCN)NC(=O)[C@H](CC(N)=O)NC(=O)CNC(=O)[C@H](CC(=O)O)NC(=O)[C@H]([C@@H](C)O)NC1=O` [Peptide Q208A] (Ac-SAKECTDGNKENCGAA-NH2; disulfide 5-13), the pKd at 9H4 IgG is 5.54; at 4D11 IgG (setting [3]), 6.40.
For the compound `CC(=O)N[C@@H](C)C(=O)N[C@@H](CCC(N)=O)C(=O)N[C@@H](CCCCN)C(=O)N[C@@H](CCC(=O)O)C(=O)N[C@H]1CSSC[C@@H](C(=O)NCC(=O)N[C@@H](C)C(=O)N[C@@H](C)C(N)=O)NC(=O)[C@H](CC(N)=O)NC(=O)[C@H](CCC(=O)O)NC(=O)[C@H](CCCCN)NC(=O)[C@H](CC(N)=O)NC(=O)CNC(=O)[C@H](CC(=O)O)NC(=O)[C@H]([C@@H](C)O)NC1=O` [Peptide S207A] (Ac-AQKECTDGNKENCGAA-NH2; disulfide 5-13), the pKd on 9H4 IgG is 5.54; at 4D11 IgG (setting [3]), 6.30.
In the case of `CC(=O)N[C@@H](CO)C(=O)N[C@@H](CCC(N)=O)C(=O)N[C@@H](CCCCN)C(=O)N[C@@H](CCC(=O)O)C(=O)N[C@H]1CSSC[C@@H](C(=O)NCC(=O)N[C@@H](C)C(=O)N[C@@H](C)C(N)=O)NC(=O)[C@H](CC(N)=O)NC(=O)[C@H](CCC(=O)O)NC(=O)[C@H](CCCCN)NC(=O)[C@H](CC(N)=O)NC(=O)CNC(=O)[C@H](CC(=O)O)NC(=O)[C@H](C)NC1=O` [Peptide T212A] (Ac-SQKECADGNKENCGAA-NH2; disulfide 5-13), the pKd on 9H4 IgG is 5.32; at 4D11 IgG (setting [3]) it was 6.30.
